Numbered stars: 1 amine (or outer) side, 2 acyl side, 3 side chain; on linkers, the order of the positions; unused ones are H or OH. Side chains are listed from the residue outwards. Peptide text beside a SMILES is read from it. * marks the point of attachment. C20 diacid = O=C(O)CCCCCCCCCCCCCCCCCCC(=O)*; γGlu = O=C(O)[C@H](CCC(=O)[*:2])N[*:1]; AEEA = NCCOCCOCC(=O)O
Molecular target: T1, Human CRF1 receptor (Homo sapiens, UniProt P34998)
T1 construct: host or cells: CHO-K1 (membrane preparation)
T1 sequence (P34998 24-415): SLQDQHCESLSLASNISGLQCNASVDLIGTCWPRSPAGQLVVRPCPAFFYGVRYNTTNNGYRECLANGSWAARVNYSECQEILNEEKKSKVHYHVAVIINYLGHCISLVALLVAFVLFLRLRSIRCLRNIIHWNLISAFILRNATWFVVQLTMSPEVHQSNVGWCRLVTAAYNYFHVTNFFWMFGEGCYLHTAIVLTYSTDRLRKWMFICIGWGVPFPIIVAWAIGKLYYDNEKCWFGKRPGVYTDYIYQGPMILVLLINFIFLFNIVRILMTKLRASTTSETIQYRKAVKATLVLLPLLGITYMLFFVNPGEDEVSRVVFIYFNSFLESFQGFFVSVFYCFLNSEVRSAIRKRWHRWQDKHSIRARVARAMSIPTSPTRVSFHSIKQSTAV
Experiment: CRF1 receptor CHO cell β-Arrestin recruitment assay (PathHunter)
Assay type: cell-based
Conditions: CHO-K1 cells, 0.1% ovalbumin
Procedure: The purpose of this investigation was to test the in vitro agonistic activity (potency) of the compounds of the invention to receptor subtype CRF1 and CRF2. […] The native, human Ucn1 and Ucn2 peptides were included as references. Assay principle: Activated G-protein coupled receptors (GPCRs) can interact with the Arrestin family of signalling proteins. The potency of peptides for CRF induced Arrestin recruitment is determined using the PathHunter Enzyme Fragment Complementation approach substantially as described in von […] et al., FASEB J., 2007, 3819, 26 and Hamdouchi et al., J. Med. Chem., 2016, 59, 10891-10916. The target GPCR is tagged with the small fragment of β-gal called ProLinkTM, a low affinity version of enzyme donor and co-expressed in cells stably expressing β-Arrestin tagged with enzyme acceptor. Activation of the GPCR stimulates binding of β-Arrestin to the ProLink-tagged GPCR, forcing complementation of ProLink and enzyme acceptor, resulting in the formation of an active β-gal enzyme. The resulting active enzyme hydrolyses substrate present in the PathHunter detection reagents to generate light. […] Plates were first incubated for 90 minutes in a 37° C., 5% CO2 incubator and then 5 μL of PathHunter detection reagent was added (DiscoveRx, 93-0001) and the plates were incubated at room temperature for 60 minutes after which the luminescence signal was measured (BMG […]). […]

Row | EC50 [µM] | SMILES
1 | > 10 | CC[C@H](C)[C@H](NC(=O)[C@H](CCC(=O)O)NC(=O)[C@H](C)NC(=O)[C@H](CC(N)=O)NC(=O)[C@@H](NC(=O)[C@@H](NC(=O)[C@H](C)NC(=O)[C@H](CCC(N)=O)NC(=O)[C@H](CCC(=O)O)NC(=O)[C@H](CCCNC(=N)N)NC(=O)[C@H](C)NC(=O)[C@H](C)NC(=O)[C@H](CCCNC(=N)N)NC(=O)[C@H](C)NC(=O)[C@H](CCCNC(=N)N)NC(=O)[C@H](C)NC(=O)[C@H](CCC(N)=O)NC(=O)[C@H](CCC(=O)O)NC(=O)[C@H](CC(C)C)NC(=O)[C@H](CC(C)C)NC(=O)[C@@H](NC(=O)[C@H](CCC(N)=O)NC(=O)[C@H](CC(C)C)NC(=O)[C@H](CC(C)C)NC(=O)CNC(=O)[C@@H](NC(=O)[C@@H]1CCCN1C(=O)[C@@H](NC(=O)[C@H](CC(=O)O)NC(=O)[C@H](CC(C)C)NC(=O)[C@H](CO)NC(=O)[C@H](CC(C)C)NC(=O)[C@@H](NC(=O)[C@@H](NC(=O)[C@@H](N)CCCCNC(=O)COCCOCCNC(=O)COCCOCCNC(=O)CC[C@H](NC(=O)CC[C@H](NC(=O)CC[C@H](NC(=O)CCCCCCCCCCCCCCCCCCC(=O)O)C(=O)O)C(=O)O)C(=O)O)[C@@H](C)CC)C(C)C)C(C)C)[C@@H](C)CC)[C@@H](C)CC)[C@@H](C)O)[C@@H](C)O)C(=O)N[C@@H](CC(C)C)C(=O)N[C@@H](C)C(=O)N[C@@H](CCC(=O)O)C(=O)N[C@H](C(N)=O)C(C)C [Compound 3] (H-K([AEEA-AEEA-γGlu-γGlu-γGlu-C20 diacid])IVLSLDVPIGLLQILLEQARARAAREQATTNAEILAEV-NH2)
2 | > 10 | CC[C@H](C)[C@H](NC(=O)[C@H](CCC(=O)O)NC(=O)[C@H](C)NC(=O)[C@H](CC(N)=O)NC(=O)[C@@H](NC(=O)[C@@H](NC(=O)[C@H](C)NC(=O)[C@H](CCC(N)=O)NC(=O)[C@H](CCC(=O)O)NC(=O)[C@H](CCCNC(=N)N)NC(=O)[C@H](C)NC(=O)[C@H](C)NC(=O)[C@H](CCCNC(=N)N)NC(=O)[C@H](C)NC(=O)[C@H](CCCNC(=N)N)NC(=O)[C@H](C)NC(=O)[C@H](CCC(N)=O)NC(=O)[C@H](CCC(=O)O)NC(=O)[C@H](CC(C)C)NC(=O)[C@H](CC(C)C)NC(=O)[C@@H](NC(=O)[C@H](CCC(N)=O)NC(=O)[C@H](CC(C)C)NC(=O)[C@H](CC(C)C)NC(=O)CNC(=O)[C@@H](NC(=O)[C@@H]1CCCN1C(=O)[C@@H](NC(=O)[C@H](CC(=O)O)NC(=O)[C@H](CC(C)C)NC(=O)[C@H](CO)NC(=O)[C@H](CC(C)C)NC(=O)[C@@H](NC(=O)[C@@H](NC(=O)[C@@H](N)CCCCNC(=O)COCCOCCNC(=O)COCCOCCNC(=O)CC[C@H](NC(=O)CC[C@H](NC(=O)CC[C@H](NC(=O)CCCCCCCCCCCCCCCCCCC(=O)O)C(=O)O)C(=O)O)C(=O)O)[C@@H](C)CC)C(C)C)C(C)C)[C@@H](C)CC)[C@@H](C)CC)[C@@H](C)O)[C@@H](C)O)C(=O)N[C@@H](CC(C)C)C(=O)N[C@@H](CCC(=O)O)C(=O)N[C@@H](CCCNC(=N)N)C(=O)N[C@H](C(N)=O)C(C)C [Compound 4] (H-K([AEEA-AEEA-γGlu-γGlu-γGlu-C20 diacid])IVLSLDVPIGLLQILLEQARARAAREQATTNAEILERV-NH2)

— patent US20230233650A1, “NOVEL FATTY ACID MODIFIED UROCORTIN 2 DERIVATIVES AND THE USES THEREOF” (Novo Nordisk A/S, priority 2021, published 2023)
